Data as given in patent US20100215716A1, “COMPOSITIONS AND METHODS FOR COATING ORTHOPEDIC IMPLANTS” (Biomet Manufacturing Corp., priority 2009, published 2010).

Assay: Solubility of antibiotics and polymer in organic solvents

solubility in ethyl acetate, dichloromethane, and tetrahydrofuran: dissolved
Compound: CC[C@H]1OC(=O)[C@H](C)[C@@H](O[C@H]2C[C@@](C)(OC)[C@@H](O)[C@H](C)O2)[C@H](C)[C@@H](O[C@@H]2O[C@H](C)C[C@H](N(C)C)[C@H]2O)[C@](C)(O)C[C@@H](C)C(=O)[C@H](C)[C@@H](O)[C@]1(C)O [erythromycin]
